Experimental findings from paper PMC3242417 (Bioorganic & medicinal chemistry letters, 2011) are described below.

Series [1] concerns HCV replicon. As to the kind of experiment: microbe, parasite or virus in culture. It is filed as cell-based. Particulars: for EC50: read-out: Anti-HCV EC50; for EC90: read-out: Anti-HCV EC90.
Series [2] deals with four different cell lines.
Series [3] deals with HepG2 cells. Briefly: Toxicity to HepG2 cells. It is filed as cell-based. Particulars: data not shown.
Series [4] relates to HIV-1. Briefly: microbe, parasite or virus in culture. It is filed as cell-based. To be noted: for EC50: read-out: Anti-HIV-1 EC50.
Series [5] relates to PBM cells.
In series [6] the test system is VERO cells.
In series [7] the test system is CEM cells.
The test system of series [8] is wild-type HBV. The class given is cell-based. To be noted: in vitro.
Series [9] in a line: in vitro. Particulars: human.
A short description of series [10]: in vitro.
Series [11] in a line: in vitro. To be noted: human. The source holds these as a separate data set.
The test system of series [12] is Huh-7 cells. Briefly: Cellular pharmacology: intracellular metabolites in Huh-7 cells by LC-MS/MS. The class given is in vitro ADME. To be noted: 50 μM, 37°C, 4 h.
The mark [13] stands for this setting: Human immunodeficiency virus 1, read-out: Anti-HIV-1 EC90.

Like-named read-outs stand apart in the source and are kept apart here.

Broadly, the EC50 is the midpoint of the concentration-response curve. Broadly, the EC90 is the point of the concentration-response curve where the effect stands at 90%. As usually defined, the IC50 is the concentration that gives 50% inhibition. With “4-amino-7-iodo-1-(2-deoxy-2-fluoro-2-C-methyl-α-D-ribofuranosyl)-1H-pyrrolo[2,3-d]pyrimidine [Compound 4e]”, the “anti-HCV activity (in words)” value in series [1] (HCV replicon) is “modest anti-HCV activity”. The EC50 is 7 µM in [1] (HCV replicon, 96 h) and more than 100 µM in series [4]. Further, the EC90 in [1] (HCV replicon, 96 h) is 24.9 µM; in [4] (read-out: Anti-HIV-1 EC90) it was more than 100 µM. Besides, the “toxicity (in words)” value in [2] is reported as “toxicity”. In series [3], the “toxicity to HepG2 cells (in words)” value is on record as “toxicity to HepG2 cells”. Also, the figures for the IC50 in [5], in series [6] and in [7] were more than 100 µM, 65.9 µM and 40.9 µM, respectively. The “anti-HBV activity (in words)” value in [8] is reported as “weak anti-HBV activity”.

With “4-amino-7-iodo-1-(2-deoxy-2-fluoro-2-C-methyl-β-D-ribofuranosyl)-1H-pyrrolo[2,3-d]pyrimidine [Compound 5e]”, the “anti-HCV activity (in words)” value in [1] (HCV replicon) is “modest anti-HCV activity”. The EC50 in [1] (HCV replicon, 96 h) stood at 1.1 µM; in series [4], 94 µM. The concentration for an effect of 90% (EC90) is more than 33 µM in series [1] (HCV replicon, 96 h) and more than 100 µM in series [4] (read-out: Anti-HIV-1 EC90). The “toxicity (in words)” value in [2] is reported as “toxicity”. For the same compound, the IC50 turned out to be 53.2 µM in series [5], 21.4 µM in [6] and 24 µM in [7].

Regarding `C[C@@]1(F)[C@H](O)[C@@H](CO)O[C@@H]1n1ccc2c(N)ncnc21` [Compound 4a], the EC90 is more than 10 µM in series [1] (Hepatitis C virus, Huh-7, 96 h) and more than 100 µM in series [4] (setting [13]). Moreover, the IC50 in series [9] and in series [10] was more than 100 µM in each case. Also, the CC50 at 96 h in series [11] is more than 10 µM.

With `C[C@@]1(F)[C@H](O)[C@@H](CO)O[C@@H]1n1cc(F)c2c(N)ncnc21` [Compound 4b], the EC90 in series [1] (Hepatitis C virus, Huh-7, 96 h) is more than 10 µM; in [4] (setting [13]), more than 100 µM. Moreover, the IC50 in [10] was more than 100 µM.

For the compound `C[C@@]1(F)[C@H](O)[C@@H](CO)O[C@@H]1n1cc(Cl)c2c(N)ncnc21` [Compound 4c], the EC90 in [1] (Hepatitis C virus, Huh-7, 96 h) is more than 10 µM. The CC50 at 96 h in series [11] was more than 10 µM.

On to `C[C@@]1(F)[C@H](O)[C@@H](CO)O[C@@H]1n1cc(Br)c2c(N)ncnc21` [Compound 4d], for which the EC90 in series [1] (Hepatitis C virus, Huh-7, 96 h) is more than 10 µM; in series [4] (setting [13]) it was more than 100 µM.

Take `C[C@@]1(F)[C@H](O)[C@@H](CO)O[C@@H]1n1ccc2c(N)nc(N)nc21` [Compound 4f]: the EC90 in [1] (Hepatitis C virus, Huh-7, 96 h) is more than 10 µM. The IC50 in series [9] and in series [10] was more than 100 µM throughout. The same compound showed a CC50 at 96 h in [11] of more than 10 µM.

With `C[C@@]1(F)[C@H](O)[C@@H](CO)O[C@@H]1n1cc(I)c2c(N)nc(N)nc21` [Compound 4g], the EC90 in [1] (Hepatitis C virus, Huh-7, 96 h) is more than 10 µM. The CC50 at 96 h in series [11] was more than 10 µM.

As for `CNc1ncnc2c1c(F)cn2[C@H]1O[C@H](CO)[C@@H](O)[C@@]1(C)F` [Compound 4h], the EC90 in series [1] (Hepatitis C virus, Huh-7, 96 h) was more than 10 µM; in [4] (setting [13]) it was more than 100 µM. Moreover, the IC50 in series [9] and in series [10] was more than 100 µM each time. In series [11], this compound yielded a CC50 at 96 h of more than 10 µM.

Take `COc1ncnc2c1ccn2[C@H]1O[C@H](CO)[C@@H](O)[C@@]1(C)F` [Compound 4i]: the EC90 in series [1] (Hepatitis C virus, Huh-7, 96 h) was more than 10 µM. Besides, the IC50 in series [9] and in series [10] was more than 100 µM throughout.

Consider `C[C@@]1(F)[C@H](O)[C@@H](CO)O[C@H]1n1ccc2c(N)ncnc21` [Compound 5a], for which the IC50 in series [9] and in series [10] was more than 100 µM each time.

`C[C@@]1(F)[C@H](O)[C@@H](CO)O[C@H]1n1cc(F)c2c(N)ncnc21` [Compound 5b] showed an IC50 in series [10] of more than 100 µM. This compound gave a CC50 at 96 h in series [11] of more than 10 µM.

Take `C[C@@]1(F)[C@H](O)[C@@H](CO)O[C@H]1n1cc(Cl)c2c(N)ncnc21` [Compound 5c]: the EC90 in series [4] (setting [13]) is more than 100 µM.

With `C[C@@]1(F)[C@H](O)[C@@H](CO)O[C@H]1n1ccc2c(N)nc(N)nc21` [Compound 5f], in series [9], the IC50 was more than 100 µM. Moreover, in series [12], the “deamination to 7-deazaguanosine nucleoside or nucleoside phosphate” value is reported as “no deamination had occurred” and the “nucleoside triphosphate found intracellularly” value is reported as “only a trace amount of nucleoside triphosphate was found”. Also, the 90% effect concentration (EC90) in [4] (setting [13]) was more than 100 µM. The 50% inhibitory concentration (IC50) in [10] is more than 100 µM.

As to `C[C@@]1(F)[C@H](O)[C@@H](CO)O[C@H]1n1cc(I)c2c(N)nc(N)nc21` [Compound 5g], the EC90 in series [4] (setting [13]) was more than 100 µM.

`CNc1ncnc2c1c(F)cn2[C@@H]1O[C@H](CO)[C@@H](O)[C@@]1(C)F` [Compound 5h]: the IC50 in [9] and in [10] was more than 100 µM throughout.

Consider `COc1ncnc2c1ccn2[C@@H]1O[C@H](CO)[C@@H](O)[C@@]1(C)F` [Compound 5i], for which the IC50 in series [9] and in series [10] was more than 100 µM throughout. The compound also displayed a CC50 at 96 h in series [11] of more than 10 µM.

Regarding `C=Cc1cn([C@H]2O[C@H](CO)[C@@H](O)[C@@]2(C)F)c2ncnc(N)c12` [Compound 6], in series [1] (HCV replicon), the “anti-HCV activity (in words)” value was “moderate anti-HCV activity”. Also, the “toxicity (in words)” value in series [2] is on record as “strong toxicity across all cell lines”. In addition, in series [4], the “anti-HIV-1 activity (in words)” value is “anti-HIV-1 activity”.

`C=Cc1cn([C@@H]2O[C@H](CO)[C@@H](O)[C@@]2(C)F)c2ncnc(N)c12` [Compound 7]: in series [2], the “toxicity (in words)” value was “exhibited toxicity in the ribosomal RNA assay and in three independent cell lines”. For the same compound, the “anti-HIV-1 activity (in words)” value in [4] was “anti-HIV-1 activity”.

Compound `CCc1cn([C@H]2O[C@H](CO)[C@@H](O)[C@@]2(C)F)c2ncnc(N)c12` [Compound 8] showed a half-maximal inhibitory concentration (IC50) in series [9] of more than 100 µM. The 90% effect concentration (EC90) in [4] (setting [13]) is more than 100 µM.

As for `CCc1cn([C@@H]2O[C@H](CO)[C@@H](O)[C@@]2(C)F)c2ncnc(N)c12` [Compound 9], the EC90 in series [1] (Hepatitis C virus, Huh-7, 96 h) was more than 10 µM. The IC50 in [9] is more than 100 µM. Also, the CC50 at 96 h in series [11] is more than 10 µM.

With `COC(=O)/C=C/c1cn([C@H]2O[C@H](CO)[C@@H](O)[C@@]2(C)F)c2ncnc(N)c12` [Compound 10], the EC90 in [1] (Hepatitis C virus, Huh-7, 96 h) was more than 10 µM. The “concentration up to which no cytotoxicity was observed” value in series [2] (four different cell lines) was more than 100 µM. The IC50 in [9] and in series [10] was more than 100 µM throughout. Further, the “anti-HIV-1 activity (in words)” value in series [4] is on record as “strong anti-HIV-1 activity”. Moreover, the “anti-HBV activity (in words)” value in series [8] is “no anti-HBV activity”.

As to `COC(=O)/C=C/c1cn([C@@H]2O[C@H](CO)[C@@H](O)[C@@]2(C)F)c2ncnc(N)c12` [Compound 11], the IC50 in series [9] and in [10] was more than 100 µM in each case. In series [11], this compound had a CC50 at 96 h of more than 10 µM.

In series [9], `C#Cc1cn([C@H]2O[C@H](CO)[C@@H](O)[C@@]2(C)F)c2ncnc(N)c12` [Compound 12] had an IC50 of more than 100 µM. Also, the EC90 in [4] (setting [13]) was more than 100 µM.

With `C#Cc1cn([C@@H]2O[C@H](CO)[C@@H](O)[C@@]2(C)F)c2ncnc(N)c12` [Compound 13], the EC90 in [1] (Hepatitis C virus, Huh-7, 96 h) was more than 10 µM. In series [9], this compound came in with a 50% inhibitory concentration (IC50) of more than 100 µM. This compound also came in with a CC50 at 96 h in series [11] of more than 10 µM.

As for `C#Cc1cn([C@H]2O[C@H](CO)[C@@H](O)[C@@]2(C)F)c2nc(N)nc(N)c12` [Compound 14], the “anti-HIV-1 activity (in words)” value in [4] is “anti-HIV-1 activity”. The “anti-HBV activity (in words)” value in series [8] is “no anti-HBV activity”.

`C#Cc1cn([C@@H]2O[C@H](CO)[C@@H](O)[C@@]2(C)F)c2nc(N)nc(N)c12` [Compound 15]: the EC90 in [1] (Hepatitis C virus, Huh-7, 96 h) is more than 10 µM. In addition, the CC50 at 96 h in [11] is more than 10 µM.

In the case of `C[C@@]1(F)[C@H](O)[C@@H](CO)O[C@@H]1n1cc(C#Cc2ccccc2)c2c(N)ncnc21` [Compound 16], the “anti-HIV-1 activity (in words)” value in series [4] is reported as “anti-HIV-1 activity”. Besides, the “anti-HBV activity (in words)” value in series [8] is “no anti-HBV activity”.

For the compound `C[C@@]1(F)[C@H](O)[C@@H](CO)O[C@H]1n1cc(C#Cc2ccccc2)c2c(N)ncnc21` [Compound 17], the 90% effect concentration (EC90) in series [1] (Hepatitis C virus, Huh-7, 96 h) is more than 10 µM. In series [3], the “toxicity to HepG2 cells (in words)” value is listed as “toxicity to HepG2 cells”. The “anti-HIV-1 activity (in words)” value in series [4] is “anti-HIV-1 activity”. Besides, the “anti-HBV activity (in words)” value in series [8] was “weak anti-HBV activity”.

Take `CCOC(=O)[C@H](C)NP(=O)(OC[C@H]1O[C@@H](n2ccc3c(N)nc(N)nc32)[C@](C)(F)[C@@H]1O)Oc1ccccc1` (some centres unmarked) [Compound 20]: in series [12], the “deamination to 7-deazaguanosine nucleoside or nucleoside phosphate” value was “no deamination had occurred” and the “nucleoside triphosphate found intracellularly” value is “only a trace amount of nucleoside triphosphate was found”.
